Measurements reported in patent US8198447B2, “Fused tricyclic compound having aldose reductase inhibitory activity” (National University Corporation University of Toyama, priority 2007, dated 2012).

Key:
[1] = test system: mouse leukemia adriamycin sensitive strain P388/S; test: Cancer cell sensitivity test (MTT); format: cell-based; settings: P388/S cells, test compound 25 μM, 44 hours, MTT-formazan at 540 nm; for inhibition at 25 µM: Mus musculus, read-out: INHIBITORY RATE (%)
Protocol: Cells of mouse leukemia adriamycin sensitive strain P388/S were cultured in an RPMI1640 culture medium (5% fetal bovine serum, […] 2-mercaptoethanol, 30 μM kanamycin) under conditions of 37° C. and 5% CO2, and used for a compound sensitivity test.
The cell suspension (1.35×10^4 cells/ml) was added to a 96 well plate, 100 μl per well.
After culturing under the conditions of 37° C. and 5% CO2 for 16 hours, a solution of the test compound dissolved in DMSO to a concentration of 25 μM was added, followed by continuation of culture for a further 44 hours, while only DMSO was added to a control to continue the culture.
After culturing, […] (PBS, pH 7.4), was added in an amount of 25 μl/well, followed by incubation for four hours to produce MTT-formazan.
After removing supernatant by aspiration, 200 μl of DMSO was added and the absorbance of MTT-formazan at 540 nm was measured.

[2] = molecular target: Aldose reductase II (Homo sapiens, UniProt P15121); test: Aldose reductase inhibitory activity (NADPH decrease at 340 nm, DL-glyceraldehyde substrate); format: biochemical; settings: pH 6.2, 100 mM DL-glyceraldehyde, 1.5 mM NADPH
Protocol: A reaction solution containing a 200 mM of a phosphate buffer solution (pH 6.2), 1.5 mM of reduced nicotinamide adenine dinucleotide phosphate (NADPH), 1 mg/ml of bovine serum albumin, a test compound, and 100 mM of DL-glyceraldehyde as a substrate was prepared. Aldose reductase II (5.1×10^−1 unit/ml) was added to the solution to initiate the reaction, and the amount of NADPH reduced by the reaction was measured at an absorption wavelength of 340 nm using a spectrophotometer.

[3] = test system: mice; test: Acute toxicity test; format: in vivo; settings: 500 mg/kg body weight, three mice
Protocol: Compound 28 was orally administered to three mice at a dose of 500 mg/kg body weight, the maximum amount considered to be prescribed for the mouse in one dose.

Row | SMILES | IC50 [2] [µM] | further results
1 | CCOC(=O)Cn1c2c(c3cc(F)ccc31)CCN(Cc1ccccc1)C2=O [Compound 22a, (2-Benzyl-6-fluoro-1-oxo-1,2,3,4-tetrahydro-β-carbolin-9-yl)acetic acid ethyl ester] | – | inhibition at 25 µM [1]: 34.5%
2 | CC(C)(C)OC(=O)Cn1c2c(c3cc(F)ccc31)CCN(Cc1ccccc1)C2=S [Compound 23, (2-benzyl-6-fluoro-1-thioxo-1,2,3,4-tetrahydro-β-carbolin-9-yl)acetic acid tert-butyl ester] | 5.6 | INHIBITORY RATE (%) [1]: 92.9%
3 | O=C(O)Cn1c2c(c3ccccc31)CCN(Cc1ccccc1)C2=S [Compound 26, (2-Benzyl-1-thioxo-1,2,3,4-tetrahydro-β-carbolin-9-yl)acetic acid] | 4.2 | inhibition at 25 µM [1]: 88.1%
4 | O=C(O)Cn1c2c(c3c(F)cc(F)cc31)CCN(Cc1ccccc1)C2=S [Compound 28, (2-Benzyl-5,7-difluoro-1-thioxo-1,2,3,4-tetrahydro-β-carbolin-9-yl)acetic acid] | 2.5 | Survival after single oral dose [3]: all of the three mice survived; Abnormalities in internal organs, action, etc. ([3]; oral): no abnormalities being observed
5 | O=C(O)Cn1c2c(c3cc(Cl)ccc31)CCOC2=O [Compound 30, (6-Chloro-1-oxo-3,4-dihydro-1H-pyrano[3,4-b]indol-9-yl)acetic acid] | 12.4 | inhibition at 25 µM [1]: 31.1%
6 | O=C(O)Cn1c2c(c3ccccc31)CCN(C(=O)c1cc(F)cc(F)c1)C2=O [Compound 50, [2-(3.5-Difluorobenzoyl)-1-oxo-1,2,3,4-tetrahydro-β-carbolin-9-yl]acetic acid] | 34.5 | –
7 | O=C(O)Cn1c2c(c3ccccc31)CCN(C(=O)c1ccc(Br)cc1F)C2=O [Compound 51, [2-(2-Fluoro-4-bromobenzoyl)-1-oxo-1,2,3,4-tetrahydro-β-carbolin-9-yl]acetic acid] | 68.3 | –
8 | O=C(O)Cn1c2c(c3ccccc31)CCN(C(=O)c1cc(F)c(F)c(F)c1)C2=O [Compound 52, [2-(3,4,5-Trifluorobenzoyl)-1-oxo-1,2,3,4-tetrahydro-β-carbolin-9-yl]acetic acid] | 55.3 | inhibition at 25 µM [1]: 34.7%
9 | COc1cc(C(=O)N2CCc3c(n(CC(=O)O)c4ccccc34)C2=O)cc(OC)c1OC [Compound 53, [2-(3,4,5-Trimetoxybenzoyl)-1-oxo-1,2,3,4-tetrahydro-β-carbolin-9-yl]acetic acid] | 46.8 | –
10 | O=C(O)Cn1c2c(c3ccccc31)CCN(C(=O)c1cc(O)c(O)c(O)c1)C2=O [Compound 54, [2-(3,4,5-Trihydroxybenzoyl)-1-oxo-1,2,3,4-tetrahydro-β-carbolin-9-yl]acetic acid] | 48 | –
11 | O=C(O)Cn1c2c(c3ccccc31)CCN(C(=O)c1ccccc1)C2=O [Compound 55, (2-Benzoyl-1-oxo-1,2,3,4-tetrahydro-β-carbolin-9-yl)acetic acid] | 53.1 | –
12 | O=C(O)Cn1c2c(c3cc(Cl)ccc31)CCSC2=O [Compound 56, (6-chloro-1-oxo-3,4-dihydro-1H-2-thia-9-azafluoren-9-yl)acetic acid] | 1.1 | –
13 | O=C(O)Cn1c2c(c3ccccc31)CCSC2=O [Compound 57, (1-Oxo-3,4-dihydro-1H-2-thia-9-azafluoren-9-yl)acetic acid] | 2.8 | –
14 | Cc1ccc2c(c1)c1c(n2CC(=O)O)C(=O)SCC1 [Compound 58, (6-Methyl-1-oxo-3,4-dihydro-1H-2-thia-9-azafluoren-9-yl)acetic acid] | 1.6 | –
15 | CC(C)(C)c1ccc2c(c1)c1c(n2CC(=O)O)C(=O)SCC1 [Compound 59, (6-tert-Butyl-1-oxo-3,4-dihydro-1H-2-thia-9-azafluoren-9-yl)acetic acid] | 1.4 | –
16 | O=C(O)Cn1c2c(c3cc(Cc4ccccc4)ccc31)CCSC2=O [Compound 60, (6-Benzyl-1-oxo-3,4-dihydro-1H-2-thia-9-azafluoren-9-yl)acetic acid] | 3.6 | –
17 | COc1ccc2c(c1)c1c(n2CC(=O)O)C(=O)SCC1 [Compound 61, (6-Methoxy-1-oxo-3,4-dihydro-1H-2-thia-9-azafluoren-9-yl)acetic acid] | 2.6 | –
18 | O=C(O)Cn1c2c(c3cc(C4CCCCC4)ccc31)CCSC2=O [Compound 62, (6-Cyclohexyl-1-oxo-3,4-dihydro-1H-2-thia-9-azafluoren-9-yl)acetic acid] | 5.6 | –
19 | Cc1cc(C)c2c3c(n(CC(=O)O)c2c1)C(=O)SCC3 [Compound 63, (5,7-Dimethyl-1-oxo-3,4-dihydro-1H-2-thia-9-azafluoren-9-yl)acetic acid] | 5.9 | –
20 | O=C(O)Cn1c2c(c3c(Cl)cccc31)CCSC2=O [Compound 64, (5-Chloro-1-oxo-3,4-dihydro-1H-2-thia-9-azafluoren-9-yl)acetic acid] | 3.6 | –
21 | O=C(O)Cn1c2c(c3cc4c(cc31)CCCC4)CCSC2=O [Compound 65, (1-Oxo-3,4,6,7,8,9-hexahydro-1H-2-thia-11-azabenzo[b]fluoren-11-yl)acetic acid] | 3.4 | –
22 | O=C(O)Cn1c2c(c3c4c(ccc31)CCCC4)CCSC2=O [Compound 66, (8-Oxo-1,3,4,8,10,11-hexahydro-2H-9-thia-7-azabenzo[c]fluoren-7-yl)acetic acid] | 1 | –
